Test results as given in PMC11435135, “Diagnosis of Prostate Cancer with a Neurotensin–Bombesin Radioligand Combination—First Preclinical Results” (Pharmaceutics, 2024).

Experiments:
NTS1R = settings: cited from earlier work
From the text: (§1) We decided to investigate the potential advantages–shortcomings of the “radioligand cocktail” approach in human prostate cancer, prompted by the reported co-expression of NTS1R and GRPR in this frequently occurring cancer type. For such a purpose, we opted for the PC-3 cell line to conduct our cell uptake studies as well as to induce subcutaneous xenografts in mice, as it co-expresses the two targets of interest. Based on our previous work on NTS1R- and GRPR-directed radioligands, we selected a cocktail consisting of [^99mTc]Tc-DT11 (NTS1R-specific) [[47] ...

PC-3 xenografts = test system: PC-3 xenografts; design: species or system mice; settings: mouse, in vivo
Description: The biodistribution of [^99mTc]Tc-DT11 was studied in male severe combined immunodeficiency (SCID) mice (11 mice 6-weeks of age on arrival date, 18 ± 4 g, NCSR “Demokritos” Animal House, Athens, Greece) bearing PC-3 xenografts in their flanks. Tumor induction was achieved by subcutaneous injection of a PC-3 cell suspension (12 × 10^6 cells in 150 µL PBS) in their flanks. The animals were kept under aseptic conditions and, 3 weeks later, developed palpable masses at the inoculation sites (150 ± 50 mg); biodistribution was then conducted. On the day of the experiment, animals were divided into three groups: controls (n = 4), Entresto® (n = 4) and block (n = 3). All mice were injected in the tail vein with a bolus of [^99mTc]Tc-DT11 (100 µL, 185 kBq, 5 pmol total peptide in vehicle). […] Blood was collected from the heart, and tumors, organs and tissue samples of interest were excised and weighted, and their radioactivity content was measured together with the proper standards of the injected activity in the gamma counter. The percent of injected activity per gram (%IA/g) was calculated, and the results were provided as mean %IA/g values ± sd for each group. […]

PC-3 cells = experiment: Uptake/internalization of [99mTc]Tc-DT11 in PC-3 cells; type: cell-based, human; settings: radioligand alone, 1 h at 37 °C
Description: The day preceding the experiment, PC-3 cells were transferred in 6-well plates (1 × 10^6 cells in 3 mL culture medium per well), and the plates were positioned in the incubator. On the day of the experiment, the plates were placed on ice and the supernatant was aspirated and discarded. The cells were rinsed with 2 × 2 mL ice-cold internalization medium (IM, RPMI-1640 with 1% FBS) and the plates were placed on the bench. Warm IM (1.2 mL at 37 °C) was added to the wells, followed by either warm IM (150 µL—3 upper wells, total series) or excess NT in IM (150 µL to a final concentration of 1 µM—3 lower wells, non-specific series). In a last step, [^99mTc]Tc-DT11 in phosphate-buffered saline with 0.5% bovine serum albumin (PBS-BSA) was added to all plates (250 fmol peptide, ≈100,000 cpm). Cells were incubated for 1 h at 37 °C in an Incubator-Orbital Shaker unit (MPM Instr. SrI, Bernareggio, Milan, Italy). Incubation was interrupted by placing the plates on ice and collecting the supernatants in separate plastic tubes. The cells were rinsed with ice-cold PBS-BSA (1 mL) and the liquid was collected and combined with the respective supernatant tubes. The plates were placed on the bench and incubated 2 × 5 min with acid buffer (2 × 600 µL, 50 mM Gly in 0.1 M NaCl, pH 2.8). Supernatants were again collected and combined in individual tubes (membrane-bound fractions). Cells were rinsed with ice-cold PBS-BSA (1 mL), which was aspirated and discarded. Finally, the cells were treated with 2 × 600 µL 1 M NaOH, detached, collected and combined in separate tubes (internalized fractions). The radioactivity of all tubes was measured in the gamma counter. The percentage of specific membrane-bound and internalized fractions (their sum corresponding to specific cell-uptake) vs. total radioactivity added per well were calculated by subtracting non-specific values from totals. Results were expressed as average values ± standard deviation (sd) from 3 independent experiments performed in triplicate.

GRPR = settings: cited from earlier work
From the text: as §1

[1] = NTS1R-specific, % of added activity, mean ± sd, 3 experiments in triplicate

Substance | affinity to the respective receptor (NTS1R) | tumor-to-kidney ratio (PC-3 xenografts) | internalized fraction as share of cell-associated activity (PC-3 cells) | membrane-bound fraction as share of cell-associated activity (PC-3 cells) | internalized fraction (PC-3 cells; [1]) | membrane-bound fraction (PC-3 cells; [1]) | affinity to the respective receptor (GRPR)
N4-Lys(MPBA-PEG4)-Arg-Arg-Pro-Tyr-Ile-Leu-OH [[^99mTc]Tc-DT11, Tc-99m labeled DT11, NTS1R-specific neurotensin-based radioligand] | sub-nanomolar | ≈ 1.5 | ≈ 87% | ≈ 13% | 1.22 ± 0.26% | 0.18 ± 0.12% | 
N4-PEG2-DPhe-Gln-Trp-Ala-Val-Gly-His-Leu-NHEt [[^99mTc]Tc-DB7, Tc-99m labeled DB7, GRPR-specific bombesin-based radioligand (GRPR antagonist)] |  |  |  |  |  |  | sub-nanomolar
